From ChEMBL document CHEMBL1140533, “Discovery of 5-HT6 receptor ligands based on virtual HTS” (Bioorg Med Chem Lett, 2007)
Values belong to the compound of their own block, whether it stands above or below them. Activity calls are given as the source filed them. No cut-off for these calls is given here.

Experiments:
[1] = biological target: T1, 5-hydroxytryptamine receptor 6 (Homo sapiens, UniProt P50406); assay: Displacement of [3H]LSD from 5HT6 receptor expressed in HEK293 cells; assay type: cell-based
T1 sequence (P50406 whole entry): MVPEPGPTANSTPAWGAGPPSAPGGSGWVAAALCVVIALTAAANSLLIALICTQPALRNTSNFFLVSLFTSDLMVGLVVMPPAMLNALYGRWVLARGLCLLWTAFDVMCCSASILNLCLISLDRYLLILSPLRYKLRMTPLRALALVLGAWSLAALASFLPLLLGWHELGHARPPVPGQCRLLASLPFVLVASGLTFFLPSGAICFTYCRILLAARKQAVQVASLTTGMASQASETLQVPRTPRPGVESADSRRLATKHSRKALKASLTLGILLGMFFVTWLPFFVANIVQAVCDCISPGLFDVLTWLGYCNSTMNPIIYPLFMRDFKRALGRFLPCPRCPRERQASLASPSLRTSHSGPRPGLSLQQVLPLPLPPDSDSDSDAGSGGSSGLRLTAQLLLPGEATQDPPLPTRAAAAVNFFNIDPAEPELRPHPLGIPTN

[2] = biological target: T1, 5-hydroxytryptamine receptor 6; assay: Displacement of [3H]LSD from 5HT6 receptor expressed in HEK293 cells at 10 uM; assay type: cell-based
[3] = biological target: 5-hydroxytryptamine receptor 7 (Homo sapiens) (UniProt P34969); assay: Binding affinity at 5HT7 receptor at 1 uM
Chain of 5-hydroxytryptamine receptor 7 (Homo sapiens) (P34969 whole entry): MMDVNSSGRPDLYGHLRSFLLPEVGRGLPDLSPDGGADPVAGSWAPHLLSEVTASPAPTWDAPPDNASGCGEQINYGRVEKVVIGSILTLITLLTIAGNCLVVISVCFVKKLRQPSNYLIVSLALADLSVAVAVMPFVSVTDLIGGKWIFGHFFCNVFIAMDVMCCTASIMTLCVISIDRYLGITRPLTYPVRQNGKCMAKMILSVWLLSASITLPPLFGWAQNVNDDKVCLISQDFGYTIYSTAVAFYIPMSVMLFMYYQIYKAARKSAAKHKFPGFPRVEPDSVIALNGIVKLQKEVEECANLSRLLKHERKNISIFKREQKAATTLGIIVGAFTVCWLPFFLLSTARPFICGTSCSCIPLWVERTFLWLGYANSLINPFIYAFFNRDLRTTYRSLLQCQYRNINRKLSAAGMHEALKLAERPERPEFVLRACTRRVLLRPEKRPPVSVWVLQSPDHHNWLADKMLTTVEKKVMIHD

[4] = biological target: T2, 5-hydroxytryptamine receptor 2A (Homo sapiens, UniProt P28223); assay: Binding affinity at 5HT2A receptor at 1 uM
T2 sequence (P28223 whole entry): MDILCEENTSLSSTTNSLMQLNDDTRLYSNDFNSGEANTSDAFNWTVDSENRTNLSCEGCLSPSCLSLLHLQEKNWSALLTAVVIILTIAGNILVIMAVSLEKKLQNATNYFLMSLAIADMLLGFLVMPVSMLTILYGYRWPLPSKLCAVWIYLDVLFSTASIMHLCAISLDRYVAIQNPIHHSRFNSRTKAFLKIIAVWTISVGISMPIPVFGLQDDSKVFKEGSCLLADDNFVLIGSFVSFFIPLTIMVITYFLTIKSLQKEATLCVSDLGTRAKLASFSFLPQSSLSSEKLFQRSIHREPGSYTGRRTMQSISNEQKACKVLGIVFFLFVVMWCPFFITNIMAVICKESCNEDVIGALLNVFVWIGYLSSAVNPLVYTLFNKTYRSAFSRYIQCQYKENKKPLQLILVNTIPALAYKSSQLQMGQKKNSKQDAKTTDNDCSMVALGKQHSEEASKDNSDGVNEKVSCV

[5] = biological target: Histamine H1 receptor (Homo sapiens) (UniProt P35367); assay: Binding affinity at histamine H1 receptor at 1 uM
Chain of Histamine H1 receptor (Homo sapiens) (P35367 whole entry): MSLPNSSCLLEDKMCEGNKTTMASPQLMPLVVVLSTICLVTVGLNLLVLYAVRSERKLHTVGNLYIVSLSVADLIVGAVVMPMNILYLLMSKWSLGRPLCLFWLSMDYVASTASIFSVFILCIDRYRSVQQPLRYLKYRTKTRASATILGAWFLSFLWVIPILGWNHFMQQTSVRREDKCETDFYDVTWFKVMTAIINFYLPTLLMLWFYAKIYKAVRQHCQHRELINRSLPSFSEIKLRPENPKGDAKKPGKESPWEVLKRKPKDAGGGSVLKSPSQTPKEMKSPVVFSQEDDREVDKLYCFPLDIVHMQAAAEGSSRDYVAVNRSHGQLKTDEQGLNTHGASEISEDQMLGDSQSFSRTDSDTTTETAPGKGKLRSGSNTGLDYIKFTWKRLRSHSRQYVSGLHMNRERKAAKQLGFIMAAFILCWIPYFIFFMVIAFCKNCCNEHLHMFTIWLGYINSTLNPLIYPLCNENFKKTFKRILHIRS

[6] = biological target: T3, 5-hydroxytryptamine receptor 2C (Homo sapiens) (UniProt P28335); assay: Binding affinity at 5HT2C receptor at 1 uM
T3 sequence (whole entry): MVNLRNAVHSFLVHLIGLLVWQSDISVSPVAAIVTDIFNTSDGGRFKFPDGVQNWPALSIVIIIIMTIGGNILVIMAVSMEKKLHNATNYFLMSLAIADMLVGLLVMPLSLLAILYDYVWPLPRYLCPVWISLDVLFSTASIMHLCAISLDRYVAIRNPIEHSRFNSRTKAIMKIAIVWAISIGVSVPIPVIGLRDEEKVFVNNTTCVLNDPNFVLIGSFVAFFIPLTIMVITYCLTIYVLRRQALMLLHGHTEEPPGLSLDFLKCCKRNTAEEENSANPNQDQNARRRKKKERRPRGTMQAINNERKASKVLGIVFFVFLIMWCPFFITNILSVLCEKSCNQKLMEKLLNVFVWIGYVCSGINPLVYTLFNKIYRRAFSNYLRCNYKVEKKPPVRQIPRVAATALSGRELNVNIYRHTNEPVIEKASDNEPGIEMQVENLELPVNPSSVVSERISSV

[7] = biological target: 5-hydroxytryptamine receptor 2B (Homo sapiens) (UniProt P41595); assay: Binding affinity at 5HT2B receptor at 1 uM
Chain of 5-hydroxytryptamine receptor 2B (Homo sapiens) (P41595 whole entry): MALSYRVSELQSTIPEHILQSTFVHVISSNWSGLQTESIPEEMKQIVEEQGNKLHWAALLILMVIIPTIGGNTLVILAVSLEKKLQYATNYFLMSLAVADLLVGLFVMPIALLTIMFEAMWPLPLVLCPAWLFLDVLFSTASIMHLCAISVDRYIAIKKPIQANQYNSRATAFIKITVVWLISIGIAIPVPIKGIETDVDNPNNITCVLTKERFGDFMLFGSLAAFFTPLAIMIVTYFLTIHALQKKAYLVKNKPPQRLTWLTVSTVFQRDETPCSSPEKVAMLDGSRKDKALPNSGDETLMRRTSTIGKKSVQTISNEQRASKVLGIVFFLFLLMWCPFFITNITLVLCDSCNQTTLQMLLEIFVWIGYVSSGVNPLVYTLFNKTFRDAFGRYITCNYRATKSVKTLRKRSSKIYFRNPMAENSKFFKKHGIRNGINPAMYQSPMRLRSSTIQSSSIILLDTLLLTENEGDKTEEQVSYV

[8] = biological target: T3, 5-hydroxytryptamine receptor 2C (Homo sapiens); assay: Inhibition of 5HT2C receptor at 10 uM
[9] = biological target: T4, 5-hydroxytryptamine receptor 1A (Homo sapiens) (UniProt P08908); assay: Inhibition of 5HT1A receptor at 10 uM
T4 sequence (whole entry): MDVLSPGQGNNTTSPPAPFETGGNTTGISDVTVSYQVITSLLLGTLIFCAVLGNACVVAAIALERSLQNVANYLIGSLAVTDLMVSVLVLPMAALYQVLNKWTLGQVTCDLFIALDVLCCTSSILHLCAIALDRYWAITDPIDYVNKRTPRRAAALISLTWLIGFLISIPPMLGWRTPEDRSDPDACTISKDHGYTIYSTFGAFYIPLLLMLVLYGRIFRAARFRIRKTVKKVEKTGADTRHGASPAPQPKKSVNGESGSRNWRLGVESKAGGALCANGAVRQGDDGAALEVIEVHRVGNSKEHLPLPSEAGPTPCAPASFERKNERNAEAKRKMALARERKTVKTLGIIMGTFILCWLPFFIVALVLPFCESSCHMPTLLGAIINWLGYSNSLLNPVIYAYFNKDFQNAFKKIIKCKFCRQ

[10] = biological target: T5, 5-hydroxytryptamine receptor 3A (Homo sapiens) (UniProt P46098); assay: Inhibition of 5HT3 receptor at 10 uM
T5 sequence (whole entry): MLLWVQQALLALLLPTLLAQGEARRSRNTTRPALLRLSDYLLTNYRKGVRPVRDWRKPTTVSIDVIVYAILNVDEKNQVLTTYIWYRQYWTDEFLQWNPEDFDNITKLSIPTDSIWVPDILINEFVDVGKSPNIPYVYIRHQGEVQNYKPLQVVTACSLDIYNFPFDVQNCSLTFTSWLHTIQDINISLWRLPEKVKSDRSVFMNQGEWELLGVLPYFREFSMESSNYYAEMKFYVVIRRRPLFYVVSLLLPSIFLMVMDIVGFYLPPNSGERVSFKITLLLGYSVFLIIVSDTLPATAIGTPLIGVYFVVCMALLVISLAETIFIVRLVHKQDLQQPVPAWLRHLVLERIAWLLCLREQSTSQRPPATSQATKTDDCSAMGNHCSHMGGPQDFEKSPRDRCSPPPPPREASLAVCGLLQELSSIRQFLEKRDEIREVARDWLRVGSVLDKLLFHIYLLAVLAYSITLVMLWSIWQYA

[11] = biological target: Histamine H1 receptor (Homo sapiens) (UniProt P35367); assay: Inhibition of histamine H1 receptor at 10 uM
[12] = biological target: 5-hydroxytryptamine receptor 4 (Homo sapiens) (UniProt Q13639); assay: Inhibition of 5HT4 receptor at 10 uM
Chain of 5-hydroxytryptamine receptor 4 (Homo sapiens) (Q13639 whole entry): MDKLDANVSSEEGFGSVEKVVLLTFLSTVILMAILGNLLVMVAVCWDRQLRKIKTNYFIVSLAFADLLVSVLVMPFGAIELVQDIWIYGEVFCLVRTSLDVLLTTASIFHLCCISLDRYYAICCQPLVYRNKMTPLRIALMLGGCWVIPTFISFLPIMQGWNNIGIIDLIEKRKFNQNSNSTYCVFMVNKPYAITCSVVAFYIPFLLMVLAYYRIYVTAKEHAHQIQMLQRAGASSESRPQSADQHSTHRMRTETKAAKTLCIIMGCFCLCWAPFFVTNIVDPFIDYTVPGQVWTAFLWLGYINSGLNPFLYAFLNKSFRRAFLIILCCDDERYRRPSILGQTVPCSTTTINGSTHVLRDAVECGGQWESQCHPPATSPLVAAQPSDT

[13] = biological target: 5-hydroxytryptamine receptor 2B (Homo sapiens) (UniProt P41595); assay: Inhibition of 5HT2B receptor at 10 uM
[14] = biological target: 5-hydroxytryptamine receptor 7 (Homo sapiens) (UniProt P34969); assay: Inhibition of 5HT7 receptor at 10 uM
[15] = biological target: 5-hydroxytryptamine receptor 1B (Homo sapiens) (UniProt P28222); assay: Inhibition of 5HT1B receptor at 10 uM
Chain of 5-hydroxytryptamine receptor 1B (Homo sapiens) (P28222 whole entry): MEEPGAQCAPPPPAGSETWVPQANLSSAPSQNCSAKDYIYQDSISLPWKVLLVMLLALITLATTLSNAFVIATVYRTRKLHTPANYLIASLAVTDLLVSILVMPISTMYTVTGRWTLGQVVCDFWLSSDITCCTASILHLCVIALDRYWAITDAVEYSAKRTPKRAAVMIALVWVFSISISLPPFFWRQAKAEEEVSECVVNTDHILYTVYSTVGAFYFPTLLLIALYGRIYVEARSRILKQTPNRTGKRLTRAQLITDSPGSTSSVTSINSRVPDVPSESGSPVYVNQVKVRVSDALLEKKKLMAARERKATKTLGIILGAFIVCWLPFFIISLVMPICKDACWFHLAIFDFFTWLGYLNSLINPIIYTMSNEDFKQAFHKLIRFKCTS

[16] = biological target: 5-hydroxytryptamine receptor 5A (Homo sapiens) (UniProt P47898); assay: Inhibition of 5HT5A receptor at 10 uM
Chain of 5-hydroxytryptamine receptor 5A (Homo sapiens) (P47898 whole entry): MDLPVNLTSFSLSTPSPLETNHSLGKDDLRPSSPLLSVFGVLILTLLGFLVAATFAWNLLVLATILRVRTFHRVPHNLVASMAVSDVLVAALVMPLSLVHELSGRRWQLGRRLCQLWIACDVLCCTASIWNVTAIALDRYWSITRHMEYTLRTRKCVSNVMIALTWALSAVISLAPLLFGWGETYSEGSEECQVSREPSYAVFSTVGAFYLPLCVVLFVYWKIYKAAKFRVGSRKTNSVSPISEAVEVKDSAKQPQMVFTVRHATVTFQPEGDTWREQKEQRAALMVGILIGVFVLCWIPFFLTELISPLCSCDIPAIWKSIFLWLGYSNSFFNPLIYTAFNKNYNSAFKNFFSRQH

[17] = biological target: D(3) dopamine receptor (Homo sapiens) (UniProt P35462); assay: Inhibition of dopamine D3 receptor at 10 uM
Chain of D(3) dopamine receptor (Homo sapiens) (P35462 whole entry): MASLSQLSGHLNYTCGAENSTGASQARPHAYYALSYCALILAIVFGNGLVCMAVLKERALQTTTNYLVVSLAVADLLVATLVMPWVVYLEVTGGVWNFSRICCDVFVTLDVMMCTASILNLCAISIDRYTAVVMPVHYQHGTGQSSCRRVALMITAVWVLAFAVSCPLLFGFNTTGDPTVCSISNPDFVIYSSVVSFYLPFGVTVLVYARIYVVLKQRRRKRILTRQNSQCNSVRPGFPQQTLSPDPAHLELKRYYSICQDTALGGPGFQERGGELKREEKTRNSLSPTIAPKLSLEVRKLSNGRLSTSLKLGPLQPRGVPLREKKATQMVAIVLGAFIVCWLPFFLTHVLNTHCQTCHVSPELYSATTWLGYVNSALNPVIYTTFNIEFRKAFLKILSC

[18] = biological target: Sodium-dependent serotonin transporter (Homo sapiens) (UniProt P31645); assay: Inhibition of SERT at 10 uM
Chain of Sodium-dependent serotonin transporter (Homo sapiens) (P31645 whole entry, looked up): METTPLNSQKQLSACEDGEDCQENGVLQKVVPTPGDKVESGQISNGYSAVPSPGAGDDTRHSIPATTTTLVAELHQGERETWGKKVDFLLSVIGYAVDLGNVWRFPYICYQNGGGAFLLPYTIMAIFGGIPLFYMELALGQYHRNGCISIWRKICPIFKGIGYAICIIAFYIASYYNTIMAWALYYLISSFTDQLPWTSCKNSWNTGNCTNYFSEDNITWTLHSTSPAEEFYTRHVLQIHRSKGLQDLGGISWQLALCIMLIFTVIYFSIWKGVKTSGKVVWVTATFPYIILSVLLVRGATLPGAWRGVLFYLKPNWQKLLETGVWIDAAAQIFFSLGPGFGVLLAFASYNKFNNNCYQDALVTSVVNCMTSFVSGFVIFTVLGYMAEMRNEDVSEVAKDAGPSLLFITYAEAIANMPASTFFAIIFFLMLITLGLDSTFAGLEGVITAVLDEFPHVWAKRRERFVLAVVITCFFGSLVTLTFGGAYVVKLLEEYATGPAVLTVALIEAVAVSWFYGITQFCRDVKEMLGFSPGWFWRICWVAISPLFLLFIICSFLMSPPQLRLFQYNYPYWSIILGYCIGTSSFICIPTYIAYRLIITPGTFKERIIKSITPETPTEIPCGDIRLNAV

[19] = biological target: T2, 5-hydroxytryptamine receptor 2A; assay: Binding affinity at 5HT2A receptor

Ki [1]: 0.008 µM
SMILES: O=[N+]([O-])c1ccc(N2CCNCC2)cc1NCc1ccc(Cl)cc1

Activity [2]: 13%
SMILES: CC(Nc1cc(N2CCNCC2)ccc1[N+](=O)[O-])c1ccccc1 (centres undefined)

Activity [2]: 49%
SMILES: CN1CCN(c2ccc([N+](=O)[O-])c(N(C)C(=O)c3ccccc3)c2)CC1

SMILES: CN1CCN(c2ccc([N+](=O)[O-])c(-n3ncccc3=O)c2)CC1
Activity [2]: 24%

SMILES: CN1CCN(c2ccc([N+](=O)[O-])c(NCc3ccccc3)c2)CC1
Activity [2]: 74%

Activity [2]: 72%
SMILES: COC(=O)c1ccc(N2CCN(C)CC2)cc1NCc1ccccc1

Activity [2]: 59%
SMILES: COc1ccc(CCNc2cc(N3CCNCC3)ccc2[N+](=O)[O-])cc1OC

Activity [2]: 37%
SMILES: CN1CCN(c2ccc(NCc3ccccc3)c(C(=O)O)c2)CC1

Activity [2]: 49%
SMILES: COc1cc(N2CCN(C)CC2)ccc1NCc1ccccc1

Activity [2]: 78%
SMILES: CN1CCN(c2ccc([N+](=O)[O-])c(NCCn3cccc3)c2)CC1

Ki [1]: 1.22 µM
SMILES: CN1CCN(c2ccc([N+](=O)[O-])c(-n3nc(-c4ccccc4)c4ccccc4c3=O)c2)CC1

Activity [1]: inactive
SMILES: CN1CCN(c2ccc(C(=O)O)c(NCCc3ccccc3)c2)CC1

Ki [1]: 1.89 µM
SMILES: COC(=O)c1cc(N2CCN(C)CC2)ccc1NCc1ccccc1

Ki [1]: 0.028 µM
SMILES: O=[N+]([O-])c1ccc(N2CCNCC2)cc1NCc1ccccc1

Ki ([1]; hek293): 0.119 µM
SMILES: CN1CCN(c2ccc([N+](=O)[O-])c(NCCc3ccccc3)c2)CC1

Ki [1]: 0.928 µM
SMILES: CN1CCN(c2ccc(OCc3ccccc3)c(NCc3ccccc3)c2)CC1

SMILES: COC(=O)c1ccc(N2CCN(C)CC2)cc1NCc1ccco1
Activity [2]: 31%

Activity [2]: 10%
SMILES: Cc1cccc(OCCNc2cc(N3CCN(C)CC3)ccc2[N+](=O)[O-])c1

SMILES: COc1ccc(N2CCN(C)CC2)cc1NCc1ccco1
Activity [2]: 53%

Activity [2]: 22%
SMILES: COc1cccc(OCCNc2cc(N3CCN(C)CC3)ccc2[N+](=O)[O-])c1

SMILES: CN1CCN(c2ccc([N+](=O)[O-])c(Oc3ccccc3)c2)CC1
Ki [1]: 0.027 µM

Activity [2]: 24%
SMILES: COc1ccc(CCNc2cc(N3CCN(C)CC3)ccc2[N+](=O)[O-])cc1OC

Activity [2]: 67%
SMILES: Cc1ccc(OCCNc2cc(N3CCN(C)CC3)ccc2[N+](=O)[O-])cc1C

Activity [2]: 49%
SMILES: CN1CCN(c2ccc(C(=O)O)c(NCc3ccccc3)c2)CC1

inhibition [3]: 6%
inhibition [4]: 61%
inhibition [5]: 2%
inhibition [6]: 14%
inhibition [7]: 63%
SMILES: CN1CCN(c2ccc(NS(=O)(=O)c3ccccc3)c(NCc3ccccc3)c2)CC1

Activity [2]: 64%
SMILES: CN1CCN(c2ccc(NCc3ccccc3)c([N+](=O)[O-])c2)CC1

Ki [1]: 1.49 µM
SMILES: NCCNc1ccc([N+](=O)[O-])c(NCc2ccccc2)c1

SMILES: CN(C)CCc1c[nH]c2ccc(NS(=O)(=O)c3ccc4c(Cl)cccc4c3)cc12
Ki [1]: 0.0007 µM

SMILES: CN1CCN(c2ccc([N+](=O)[O-])c(NC(=O)c3ccccc3)c2)CC1
Activity [1]: inactive

Activity [1]: inactive
SMILES: CC(=O)Nc1cc(N2CCN(C)CC2)ccc1N(Cc1ccccc1)C(C)=O

SMILES: CN1CCN(c2ccc([N+](=O)[O-])c(NCc3ccco3)c2)CC1
inhibition [8]: > 90%
inhibition [9]: 61%
inhibition [10]: < 40%
inhibition [11]: > 90%
inhibition [12]: < 40%
inhibition [13]: > 90%
inhibition [14]: 61%
inhibition [15]: 61%
inhibition [16]: < 40%
inhibition [17]: > 90%
inhibition [18]: > 90%

SMILES: CN1CCN(c2ccc(C#N)c(NCc3ccco3)c2)CC1
Ki [1]: 1.36 µM

Activity [1]: inactive
SMILES: CN1CCN(c2ccc(C(=O)O)c(NCc3ccco3)c2)CC1

inhibition [3]: 52%
Ki [19]: 0.047 µM
inhibition [5]: 65%
inhibition [6]: 72%
inhibition [7]: 68%
SMILES: CN1CCN(c2ccc(C#N)c(NCc3ccccc3)c2)CC1

Activity [2]: 21%
SMILES: CN1CCN(c2ccc([N+](=O)[O-])c(NCCOc3ccc(Cl)cc3)c2)CC1

Ki [1]: 1.01 µM
SMILES: COc1ccc(N2CCN(C)CC2)cc1NCCc1ccccc1
